Measurements published in article PMC6776549, “Gingival solitary chemosensory cells are immune sentinels for periodontitis” (Nature Communications, 2019).

Columns and labels:
Tas2r105 [1] = target: T1, Tas2r105 (Mus musculus, UniProt Q9JKT4); assay: calcium mobilization in transfected HEK293, fluorescence dose-response; assay type: cell-based
T1 construct: coding region amplified from WT mouse taste bud cDNA; N-terminal tag of first 45 residues of rat somatostatin receptor 3; pcDNA3.1/Zeo(+); transient in HEK293 (PEAKrapid) with chimeric reporter G protein Galpha16gust44
T1 sequence (Q9JKT4 1-300): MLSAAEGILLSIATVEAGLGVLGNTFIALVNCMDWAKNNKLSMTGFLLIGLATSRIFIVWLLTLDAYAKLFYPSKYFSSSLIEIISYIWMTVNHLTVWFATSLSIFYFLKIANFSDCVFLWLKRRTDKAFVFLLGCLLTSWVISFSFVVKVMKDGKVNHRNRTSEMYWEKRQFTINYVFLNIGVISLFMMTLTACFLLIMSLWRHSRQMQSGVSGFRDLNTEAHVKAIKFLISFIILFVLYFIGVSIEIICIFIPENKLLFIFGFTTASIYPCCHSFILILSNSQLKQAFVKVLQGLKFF

Tas2r105 [2] = target: T1, Tas2r105; assay: calcium mobilization in transfected HEK293; assay type: cell-based; details: agonist, Gα16gust44 co-expressed

CCCCCCCCCC(=O)CC(=O)N[C@H]1CCOC1=O [LasI]
EC50 (Tas2r105 [1]): 8.9 µM

CC[N+](CC)(CC(=O)Nc1c(C)cccc1C)Cc1ccccc1 [denatonium benzoate]
calcium mobilization in transfected HEK293 (Tas2r105 [2]): Tas2r105 was also activated by the bitter compounds denatonium benzoate (Den)

CCCCCCCC(=O)N[C@H]1CCOC1=O [C8-HSL]
calcium mobilization in transfected HEK293 (Tas2r105 [2]; synthetic compound): two synthetic HSLs: 3-oxo-C12-HSL and C8-HSL
